Results as given in BindingDB's records for doi:10.1016/s0960-894x(03)00356-1 (Abbott Laboratories, 2003).

Target: Histamine H3 receptor (Rattus norvegicus) (UniProt Q9QYN8)
Experiment: Compound was tested for its binding affinity towards rat cortical Histamine H3L receptor

Chain of Histamine H3 receptor (Rattus norvegicus) (Q9QYN8 whole entry, looked up): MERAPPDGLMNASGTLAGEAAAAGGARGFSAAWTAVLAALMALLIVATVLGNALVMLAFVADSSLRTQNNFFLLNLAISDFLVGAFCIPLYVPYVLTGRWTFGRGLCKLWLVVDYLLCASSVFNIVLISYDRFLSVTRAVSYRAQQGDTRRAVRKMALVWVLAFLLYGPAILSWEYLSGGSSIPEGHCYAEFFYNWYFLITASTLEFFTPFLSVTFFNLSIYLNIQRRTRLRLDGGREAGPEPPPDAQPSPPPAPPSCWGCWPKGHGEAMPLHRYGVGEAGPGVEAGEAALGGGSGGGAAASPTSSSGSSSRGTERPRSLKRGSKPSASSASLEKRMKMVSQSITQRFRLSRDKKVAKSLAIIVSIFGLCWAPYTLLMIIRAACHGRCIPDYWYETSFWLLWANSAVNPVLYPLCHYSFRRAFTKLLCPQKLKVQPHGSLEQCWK

Ki: 158 nM
SMILES: CN(C)CCCNc1c2c(nc3c1CCCC3)CCCCC2
